Structures can show the parent of a compound that is named as a salt.
Assays:
[1] = target: T1, purified recombinant human LTA4 hydrolase (hLTA4H) (Homo sapiens, UniProt P09960); assay: In vitro assay testing inhibitory activity against purified recombinant human LTA4 hydrolase; format: biochemical; conditions: 200 nM recombinant enzyme, 2 μM LTA4, LTB4 measured by LC-MS/MS
T1 construct: A human LTA4 hydrolase full-length cDNA clone (NM_000895) was purchased from OriGene Technologies; own knowledge: pDEST17 adds an N-terminal 6xHis; made in house; host or cells: Escherichia coli BL21-AI
T1 sequence (P09960 1-611): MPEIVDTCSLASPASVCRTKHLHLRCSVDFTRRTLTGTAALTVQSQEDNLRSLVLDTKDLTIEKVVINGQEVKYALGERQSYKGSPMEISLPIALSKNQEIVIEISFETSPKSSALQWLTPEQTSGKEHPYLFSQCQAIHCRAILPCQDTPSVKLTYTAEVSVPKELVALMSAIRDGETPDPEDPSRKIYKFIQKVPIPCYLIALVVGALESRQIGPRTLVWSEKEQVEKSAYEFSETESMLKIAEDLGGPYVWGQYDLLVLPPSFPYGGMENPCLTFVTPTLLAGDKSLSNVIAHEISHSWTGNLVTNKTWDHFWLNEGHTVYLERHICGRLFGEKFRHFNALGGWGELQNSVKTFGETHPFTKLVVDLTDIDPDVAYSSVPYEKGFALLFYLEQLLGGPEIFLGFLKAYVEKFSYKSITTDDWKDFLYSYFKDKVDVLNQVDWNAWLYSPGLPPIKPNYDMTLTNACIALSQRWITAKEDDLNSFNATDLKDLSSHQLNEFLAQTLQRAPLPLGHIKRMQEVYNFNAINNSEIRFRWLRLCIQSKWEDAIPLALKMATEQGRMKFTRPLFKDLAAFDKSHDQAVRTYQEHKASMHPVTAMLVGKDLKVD
Text: (1) In Vitro Assay Testing Inhibitory Activity Against Purified Recombinant Human LTA4 Hydroase:
The gene was amplified by polmerase chain reaction and transferred via pDONR201 into the bacterial expression vector pDEST17 by recombination (both plasmids from Invitrogen, Carlsbad, Calif.). The resulting construct was transformed into Escherichia coli BL21-AI (Invitrogen), and expression was induced by chemical induction with arabinose. The recombinant enzyme was purified by chromatography on a FPLC system (Amersham Biosciences, Uppsala, Sweden) using immobilized metal affinity chromatography (Ni-NTA Superflow, Qiagen, Hilden, Germany) and anion exchange chromatography (MonoQ HR 10/10, Amersham Biosciences).
The compounds of the invention were incubated in a series of dilutions with 200 nM of recombinant enzyme in assay buffer (100 mM Tris-HCl, 100 mM NaCl, 5 mg/ml fatty-acid free BSA, 10% DMSO, pH 8.0) for 10 min at room temperature to allow binding between LTA4 hydrolase and the inhibitors. LTA4 was prepared by alkaline hydrolysis of LTA4 methyl ester (Biomol, Plymouth Meeting, Pa., or Cayman Chemicals, Ann Arbor, Mich.). A solution of 10 μg of the ester was dried under a nitrogen stream and redissolved in 60 μl of a solution of 80% aceton and 20% 0.25 M NaOH.
After incubation for 40 min at room temperature the resulting approximately 500 μM tock of LTA4 was kept at −80° C. for no more than a few days prior to use.
Immediately before the assay, LTA4 was diluted to a concentration of 10 μM in assay buffer (without DMSO) and added to the reaction mixture to a final concentration of 2 μM to initiate the enzyme reaction. […] The samples were then kept at 4° C. over night to complete protein precipitation and centrifuged for 15 min at 1800 g. LTB4 formed was measured by LC-MS/MS using LTB4-d4 as an internal standard and an external LTB4 standard (Biomol) as reference.

[2] = tested on: ionophore-induced LTB4 production; conditions: oral administration; cited from earlier work
[3] = tested on: ionophore-induced LTB4 production; conditions: oral administration; cited from earlier work; remark: listed apart in the source
colitis symptoms = conditions: eight weeks of treatment, spontaneous colitis; cited from earlier work

| Compound | IC50 [1] [µM] | further results |
| --- | --- | --- |
| O=C(O)CCCN1CCN(c2ccc(Nc3ccccc3)cc2)CC1 [Example 3, 4-[4-(4-phenylamino-phenyl)-piperazin-1-yl]-butyric acid sodium salt] | 5 to 20 |  |
| c1ccc(Cc2ccc(N3CCNCC3)cc2)cc1 [Example 4, 1-(4-Benzyl-phenyl)-piperazine hydrochloride] | < 5 |  |
| COC(=O)CCCN1CCN(c2ccc(Cc3ccccc3)cc2)CC1 [Example 5, 4-[4-(4-Benzyl-phenyl)-piperazin-1-yl]-butyric acid methyl ester] | < 5 |  |
| O=C(O)CCCN1CCN(c2ccc(Cc3ccccc3)cc2)CC1 [Example 6, 4-[4-(4-Benzyl-phenyl)-piperazin-1-yl]-butyric acid sodium salt] | < 5 |  |
| O=C(O)CCN1CCN(c2ccc(Cc3ccccc3)cc2)CC1 [Example 7, 3-[4-(4-Benzyl-phenyl)-piperazin-1-yl]-propionic acid sodium salt] | < 5 |  |
| NC1CCN(c2ccc(Oc3ccccc3)cc2)CC1 [Example 12, 1-(4-Phenoxy-phenyl)-piperidin-4-ylamine hydrochloride] | 5 to 20 |  |
| Ic1ccc(Oc2ccc(N3CCNCC3)cc2)cc1 [Example 14, 1-[4-(4-Iodo-phenoxy)-phenyl]-piperazine hydrochloride] | < 5 |  |
| O=C(O)CCCN1CCN(c2ccc(Oc3ccc(I)cc3)cc2)CC1 [Example 15, 4-{4-[4-(4-Iodo-phenoxy)-phenyl]-piperazin-1-yl]-butyric acid sodium salt] | < 5 |  |
| O=C(O)CCN1CCN(c2ccc(Oc3ccc(-c4ccsc4)cc3)cc2)CC1 [Example 16, 3-{4[4-(4-Thiophen-3-yl-phenoxy)-phenyl]-piperazin-1-yl}-propionic acid sodium salt] | < 5 |  |
| COc1ccc(Oc2ccc(N3CCNCC3)cc2)cc1 [Example 17, 1-[4-(4-Methoxy-phenoxy)-phenyl]-piperazine] | 5 to 20 |  |
| Cc1ccc(Oc2ccc(N3CCNCC3)cc2)cc1 [Example 18, 1-(4-p-Tolyloxy-phenyl]-piperazine] | < 5 |  |
| FC(F)(F)c1ccc(Oc2ccc(N3CCNCC3)cc2)cc1 [Example 20, 1-[4-(4-Trifluoromethyl-phenoxy)-phenyl]-piperazine] | < 5 |  |
| CC(=O)N1CCN(c2ccc(Oc3ccccc3)cc2)CC1 [Example 21, 1-[4-(4-Phenoxy-phenyl)-piperazin-1-yl]-ethanone] | < 5 |  |
| c1cc(-c2ccc(Oc3ccc(N4CCNCC4)cc3)cc2)cs1 [Example 23, 1-[4-(4-Thiophen-3yl-phenoxy)-phenyl]-piperazine hydrochloride] | < 5 |  |
| Ic1ccc(Oc2ccc(N3CCOCC3)cc2)cc1 [Example 24, 4-[4-(4-Iodo-phenoxy)-phenyl]-morpholine] | < 5 |  |
| c1cc(-c2ccc(Oc3ccc(N4CCOCC4)cc3)cc2)cs1 [Example 25, 4-[4-(4-Thiophen-3-yl-phenoxy)-phenyl]-morpholine] | < 5 |  |
| Clc1ccc(-c2ccc(Oc3ccc(N4CCNCC4)cc3)cc2)s1 [Example 26, hydrochloride] | 5 to 20 |  |
| CN(CCCOc1ccc(Cc2ccccc2)cc1)CCC(=O)O.Cl [SC57461] |  | inhibition of ionophore-induced LTB4 production in mouse blood ex vivo [2]: inhibition of ionophore-induced LTB4 production; inhibition of ionophore-induced LTB4 production in rat peritoneum in vivo [3]: inhibition of ionophore-induced LTB4 production; colitis symptoms in a primate model (colitis symptoms): significantly improved colitis symptoms |
